Results as given in patent publication US6365631B1, “Method of treating sleep apnoea” (Knoll Pharmaceutical Company, priority 1999, dated 2002).

Assays:
[1] = system: patients suffering from clinically relevant obesity, many with serious sleep apnoea problems; assay: clinical study, computer supported arousal/apnoea recognition in subset of 36 of 150 obese patients; format: in vivo, human; conditions: Sibutramine 20 mg daily; week-12 vs week-1 (pre-treatment); subset of 36 patients
Protocol: The beneficial effects of the compounds of the present invention at doses of 15 mg and 20 mg daily may also be confirmed in a double-blind, randomised, placebo-controlled clinical trial using questionnaires or by recording Holter ecgs with a Rozin/GeTeMed tape recorder device for 24 to 36 hours pre and post treatment period, using IEC-I type tapes. The ecg data may be computer-processed to study arousals.
In a clinical study with 150 patients suffering from clinically relevant obesity, many of them with serious sleep apnoea problems, a subset of 36 patients was arbitrarily selected for computer supported arousal/apnoea recognition. Two consecutive nights were recorded at week-1 (pre-treatment) and week-12 of treatment, and the number of arousals per hour of sleep time was evaluated. […] Compared to placebo this is significant at a 5%-level (p=0.0227).

[2] = system: patients suffering from clinically relevant obesity (BMI>30) and sleep apnoea; assay: open explorative study with 5 volunteer patients with obesity and sleep apnoea
Protocol: Study design: An open explorative study with 5 volunteer patients suffering from clinically relevant obesity (BMI>30) and sleep apnoea was performed. […] No other control treatment was applied.
Methods: Patients willing to lose weight who had obtained prescriptions for Reductil® (Knoll) from their doctor were asked to take part in this voluntary observational study. All patients were willing to change dietary habits during treatment, and to perform at least moderate physical training (twice a week at least half an hour). Patients were interviewed pre and post treatment, and their partners asked for their observations on snoring behaviour. The patients were asked for their own rating of severity of daytime sleepiness, and their partners for objective observations about frequency and heaviness of snoring as well as for their observations about apnoea signs.

[3] = 5 patients, 10 or 15 mg daily, 6 to 14 weeks

SMILES: CC(C)CC(N(C)C)C1(c2ccc(Cl)cc2)CCC1 (stereo not drawn) [sibutramine, N,N-dimethyl-1-[1-(4-chlorophenyl)cyclobutyl]-3-methylbutylamine]
- reduction of number of arousals per hour of sleep time [1]: clinically significant effect
- mean weight loss under treatment [2, 3]: 14 kg
- weight loss, span over patients [2, 3]: −7% to −22%
- mean weight loss under treatment (percent) ([2]; 5 patients, 10 or 15 mg/kg daily, 6 to 14 weeks): 14.6%
- Mean BMI at end of treatment ([2]; 5 patients, sibutramine 10 or 15 mg daily, 6 to 14 weeks, 34 before treatment): 29
- arousal index Al, mean after treatment ([2]; mean 23,5 before treatment): 10,0
- patients with clearly reduced daytime sleepiness ([2]; of 5 patients, after treatment): 4 out of 5
- patients reporting improved ease of breathing with closed mouth ([2]; of 5 patients, under treatment): 3 out of 5
- decrease of arousal index, span over patients ([2]; pre vs post treatment): −25% to −67%
- mean decrease of arousal index ([2]; pre vs post treatment): −57%
- daytime sleepiness scale after treatment, patient-reported ([2]; scale 0-3, 2,0 before treatment): 0,6
- snoring scale mean after treatment, observed by sleep companions ([2]; scale 0-3, mean score 2,2 before treatment): 1
